Values joined by “and” are separate entries in the source; they are usually repeats but may differ in a detail not shown here. Identical values can stand only once. Toxic doses and inconclusive results are not listed. No stated cut-off is given here; in the data, active means T/C of 150% or more; inactive means T/C below 125%.
Tested on: L1210 leukemia ip in BDF1 mice, survival T/C
Test: NCI In Vivo Anticancer Drug Screen. Data for tumor model L1210 Leukemia (intraperitoneal) in B6D2F1 (BDF1) mice
Conditions: endpoint: mean survival time, higher = longer survival
In short: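 Read-out is survival time, reported as the treated-group measurement over the vehicle-control measurement.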

[1] = dose: 100.0 mg/kg/injection, schedule: Q04DX003 (ip), vehicle: saline
[2] = dose: 200.0 mg/kg/injection, schedule: Q04DX003 (ip), vehicle: saline
[3] = dose: 400.0 mg/kg/injection, schedule: Q04DX003 (ip), vehicle: saline
[4] = dose: 100.0 mg/kg/injection, schedule: Q01DX001 (ip), vehicle: saline
[5] = dose: 200.0 mg/kg/injection, schedule: Q01DX001 (ip), vehicle: saline
[6] = dose: 400.0 mg/kg/injection, schedule: Q01DX001 (ip), vehicle: saline
[7] = dose: 25.0 mg/kg/injection, schedule: Q01DX009 (ip), vehicle: Klucel (hydroxypropylcellulose) (HPC)
[8] = dose: 50.0 mg/kg/injection, schedule: Q01DX009 (ip), vehicle: Klucel (hydroxypropylcellulose) (HPC)
[9] = dose: 100.0 mg/kg/injection, schedule: Q01DX009 (ip), vehicle: Klucel (hydroxypropylcellulose) (HPC)
[10] = dose: 100.0 mg/kg/injection, schedule: Q04DX003 (ip), vehicle: Klucel (hydroxypropylcellulose) (HPC)
[11] = dose: 200.0 mg/kg/injection, schedule: Q04DX003 (ip), vehicle: Klucel (hydroxypropylcellulose) (HPC)
[12] = dose: 400.0 mg/kg/injection, schedule: Q04DX003 (ip), vehicle: Klucel (hydroxypropylcellulose) (HPC)
[13] = dose: 200.0 mg/kg/injection, schedule: Q01DX009 (ip), vehicle: Klucel (hydroxypropylcellulose) (HPC)
[14] = dose: 50.0 mg/kg/injection, schedule: Q01DX001 (ip), vehicle: saline

Measured: T/C

COc1ccc(Cl)cc1NC(=O)Nc1cccc2c(O)cccc12
inactive: dose: 100.0 mg/kg/injection, schedule: Q01DX009 (ip), vehicle: saline 96 % of control | [1] 107 % of control | dose: 200.0 mg/kg/injection, schedule: Q01DX009 (ip), vehicle: saline 100 % of control | [2] 107 % of control | dose: 400.0 mg/kg/injection, schedule: Q01DX009 (ip), vehicle: saline 96 % of control | [3] 103 % of control

Cc1ccc2[nH]c3cc4ccncc4cc3c2c1
inactive: dose: 100.0 mg/kg/injection, schedule: Q01DX001 (ip), vehicle: Klucel (hydroxypropylcellulose) (HPC) 89 % of control | dose: 200.0 mg/kg/injection, schedule: Q01DX001 (ip), vehicle: Klucel (hydroxypropylcellulose) (HPC) 94 % of control | dose: 400.0 mg/kg/injection, schedule: Q01DX001 (ip), vehicle: Klucel (hydroxypropylcellulose) (HPC) 93 % of control

COC1OC(CO)C2OC12 (centres undefined)
inactive: dose: 75.0 mg/kg/injection, schedule: Q01DX009 (ip), vehicle: saline 98 % of control and 107 % of control | [4] 104 % of control | [1] 107 % of control and 100 % of control | dose: 150.0 mg/kg/injection, schedule: Q01DX009 (ip), vehicle: saline 110 % of control and 93 % of control | [5] 102 % of control and 96 % of control | [2] 98 % of control and 89 % of control | dose: 300.0 mg/kg/injection, schedule: Q01DX009 (ip), vehicle: saline 102 % of control and 100 % of control | [6] 104 % of control | [3] 100 % of control and 104 % of control

CCOC(=O)c1[nH]c(=S)[nH]c1C(=O)OCC
inactive: dose: 5.0 mg/kg/injection, schedule: Q01DX001 (ip), vehicle: saline 102 % of control | dose: 10.0 mg/kg/injection, schedule: Q01DX001 (ip), vehicle: saline 102 % of control | dose: 20.0 mg/kg/injection, schedule: Q01DX001 (ip), vehicle: saline 104 % of control | dose: 40.0 mg/kg/injection, schedule: Q01DX001 (ip), vehicle: saline 94 % of control | dose: 80.0 mg/kg/injection, schedule: Q01DX001 (ip), vehicle: saline 95 % of control

O=C(NCCCl)NC1C(O)OC(CO)C(O)C1O (centres undefined)
inactive: dose: 25.0 mg/kg/injection, schedule: Q01DX009 (ip), vehicle: water 95 % of control | dose: 50.0 mg/kg/injection, schedule: Q01DX009 (ip), vehicle: water 110 % of control | [4] 97 % of control | dose: 100.0 mg/kg/injection, schedule: Q01DX009 (ip), vehicle: water 105 % of control | [5] 98 % of control | dose: 200.0 mg/kg/injection, schedule: Q01DX009 (ip), vehicle: water 100 % of control | [6] 96 % of control | dose: 400.0 mg/kg/injection, schedule: Q01DX009 (ip), vehicle: water 97 % of control

COC(=O)CCN(C(=O)c1ccccc1)c1ccccc1C(=O)OC
inactive: dose: 75.0 mg/kg/injection, schedule: Q01DX001 (ip), vehicle: saline 98 % of control | dose: 150.0 mg/kg/injection, schedule: Q01DX001 (ip), vehicle: saline 93 % of control | dose: 300.0 mg/kg/injection, schedule: Q01DX001 (ip), vehicle: saline 86 % of control

Cc1cc(C(C)(C)C)c(O)c(C(C)(C)C)c1
inactive: [7] 110 % of control | [8] 103 % of control | [9] 113 % of control | [10] 103 % of control | [11] 114 % of control | [12] 95 % of control

CC(CCNc1ccc(NCCC(C)CC(C)(C)C)cc1)CC(C)(C)C (centres undefined)
inactive: [9] 98 % of control | [10] 110 % of control | [13] 101 % of control | [11] 102 % of control | [12] 96 % of control

Cc1c(C)c2c(C#N)c3ccccc3nc2c2ccccc12
inactive: dose: 50.0 mg/kg/injection, schedule: Q04DX003 (ip), vehicle: Klucel (hydroxypropylcellulose) (HPC) 102 % of control | [10] 102 % of control | [11] 107 % of control | [12] 103 % of control

Nc1ncnc2c1ncn2C1OC(COP(=O)(O)OP(=O)(O)OCC2OC([n+]3cccc(C=O)c3)C(O)C2O)C(O)C1O (centres undefined)
inactive: dose: 80.0 mg/kg/injection, schedule: Q01DX Z (ip), vehicle: saline 95 % of control | dose: 120.0 mg/kg/injection, schedule: Q01DX Z (ip), vehicle: saline 90 % of control | dose: 180.0 mg/kg/injection, schedule: Q01DX Z (ip), vehicle: saline 97 % of control | dose: 270.0 mg/kg/injection, schedule: Q01DX Z (ip), vehicle: saline 101 % of control

CC(=O)OC1COC(n2cnc3c(=O)[nH]c(N)nc32)C(OC(C)=O)C1OC(C)=O (centres undefined)
inactive: [14] 104 % of control | [4] 104 % of control | [5] 95 % of control | [6] 93 % of control

CC1SC(=S)N(c2ccccc2)C1=O (centres undefined)
inactive: dose: 100.0 mg/kg/injection, schedule: Q01DX009 (ip), vehicle: saline with Tween-80 92 % of control | dose: 200.0 mg/kg/injection, schedule: Q01DX009 (ip), vehicle: saline with Tween-80 106 % of control

CCOC(=N)c1cn(C2OC(CO)C(O)C2O)c2ncnc(N)c12 (centres undefined)
inactive: dose: 0.12 mg/kg/injection, schedule: Q01DX009 (ip), vehicle: saline with Tween-80 120 % of control | dose: 0.12 mg/kg/injection, schedule: Q01DX009 (ip), vehicle: saline 109 % of control | dose: 0.18 mg/kg/injection, schedule: Q01DX009 (ip), vehicle: saline with Tween-80 120 % of control | dose: 0.18 mg/kg/injection, schedule: Q01DX009 (ip), vehicle: saline 123 % of control | dose: 0.27 mg/kg/injection, schedule: Q01DX009 (ip), vehicle: saline with Tween-80 117 % of control | dose: 0.27 mg/kg/injection, schedule: Q01DX009 (ip), vehicle: saline 121 % of control | dose: 0.6 mg/kg/injection, schedule: Q01DX009 (ip), vehicle: saline 118 % of control | dose: 0.9 mg/kg/injection, schedule: Q01DX009 (ip), vehicle: saline 112 % of control | dose: 1.3 mg/kg/injection, schedule: Q01DX009 (ip), vehicle: saline 96 % of control

CC(C)=CCC/C(C)=C/CC/C(C)=C/COC(N)=O
inactive: [10] 93 % of control | [11] 96 % of control | [12] 91 % of control

CC(=O)c1ccc(N=C(N)N=C(N)N)cc1
inactive: dose: 75.0 mg/kg/injection, schedule: Q01DX001 (ip), vehicle: carboxymethylcellulose (CMC) 110 % of control | dose: 150.0 mg/kg/injection, schedule: Q01DX001 (ip), vehicle: carboxymethylcellulose (CMC) 93 % of control

O=C(Nc1ccccc1)OCC(F)(F)F
inactive: dose: 100.0 mg/kg/injection, schedule: Q04DX002 (ip), vehicle: gum acacia 105 % of control | dose: 200.0 mg/kg/injection, schedule: Q04DX002 (ip), vehicle: gum acacia 108 % of control | dose: 400.0 mg/kg/injection, schedule: Q04DX002 (ip), vehicle: gum acacia 101 % of control

COc1cc(N(CCCl)CCCl)ccc1CN1CCCN(Cc2ccc(N(CCCl)CCCl)cc2OC)C1c1ccccc1O
inactive: [8] 96 % of control | [9] 109 % of control | [10] 110 % of control | [13] 90 % of control | [11] 103 % of control

Cc1ccc(S(=O)(=O)N/N=C/c2ccc(C)s2)cc1
inactive: dose: 100.0 mg/kg/injection, schedule: Q04DX003 (ip), vehicle: saline with Tween-80 95 % of control | dose: 200.0 mg/kg/injection, schedule: Q04DX003 (ip), vehicle: saline with Tween-80 91 % of control | dose: 400.0 mg/kg/injection, schedule: Q04DX003 (ip), vehicle: saline with Tween-80 87 % of control

CCOC(=O)C1=NN(c2ccccc2)C(=O)C1N=Nc1ccc(NS(=O)(=O)c2nccs2)cc1 (centres undefined)
inactive: [4] 102 % of control | [5] 105 % of control | [6] 96 % of control

Nc1ccc(/C=C\C2(CCl)OCCO2)cc1
inactive: [14] 100 % of control | [4] 97 % of control | [5] 103 % of control | [6] 94 % of control

CS(=O)(=O)OCC1C2CCC(CC2)C1COS(C)(=O)=O (centres undefined)
inactive: [10] 100 % of control | [11] 103 % of control | [12] 102 % of control

CCCC1=NNc2n[nH]c(=S)n2N1
inactive: dose: 12.5 mg/kg/injection, schedule: Q01DX009 (ip), vehicle: Klucel (hydroxypropylcellulose) (HPC) 93 % of control | [7] 90 % of control | [8] 98 % of control | [10] 100 % of control | [11] 96 % of control

Reference: PubChem BioAssay AID248 (DTP/NCI, 2004)
